Counter-ions that a name gives are not always drawn.

The target in assay [1] is T1, Tubulin purified from pig brains (Sus scrofa, UniProt P02550+P02554).
T1 construct: Tubulin is purified from pig brains according to published methods; from tissue; host or cells: pig brain
In words: Assessment of the inhibition of tubulin polymerization (turbidimetry at 350 nm). In kind it is biochemical. The settings on record: concentration which inhibits the rate of polymerization by 50%; tubulin 1 mg/ml, 37° C.; read-out: Inhibition of tubulin polymerization IC 50. Here is the method: Assessment of the Inhibition of Tubulin Polymerization
Tubulin is purified from pig brains according to published methods (Shelanski et al., 1973, Proc. Natl. Acad. Sci. USA, 70, 765-768. Weingarten et al., 1975, Proc. Natl. Acad. Sci. USA, 72, 1858-1862). Briefly, the brains are ground and centrifuged in an extraction buffer. The tubulin, present in the extract supernatant is subjected to two successive cycles of polymerization at 37° C. and depolymerization at 4° C., before being separated from the MAPs (Microtubule Associated Proteins) by chromatography on a phosphocellulose P11 column (Whatman). The tubulin thus isolated is more than 95% pure. It is stored in a buffer known as RB/2 30% glycerol, the composition of which is 50 mM MES-NaOH [2-(N-morpholino)ethanesulfonic acid], pH 6.8; 0.25 mM MgCl2; 0.5 mM EGTA; 30% (v/v) glycerol, 0.2 mM GTP (guanosine 5′-triphosphate).
The polymerization of the tubulin into microtubules is monitored by turbidimetry as follows: the tubulin is adjusted to a concentration of 10 μm (1 mg/ml) in the RB/2 30% glycerol buffer, to which are added 1 mM GTP and 6 mM MgCl2. The polymerization is initiated by increasing the temperature from 6° C. to 37° C. in a cuvette with a 1 cm optical pathlength, placed in a UVIKON 931 spectrophotometer (Kontron) equipped with a thermostatically-regulated cuvette holder. The increase in turbidity of the solution is monitored at 350 nm.
The products are dissolved at 10 mM in DMSO and added at variable concentrations (0.5 to 10 μm) to the tubulin solution before polymerization. The IC50 is defined as the concentration of the product which inhibits the rate of polymerization by 50%.

For the next assay, the system named is HCT116 cells. In words: Inhibition of proliferation of the HCT116 human colon tumor line ([14C]-thymidine incorporation). Format: cell-based. The settings on record: HCT-116, 48 hours incubation at 37° C., read-out: Inhibition of HCT116 proliferation IC 50. Here is the method: Test for Determining the Inhibition of Proliferation of the HCT116 Human Colon Tumor Line
The proliferation of HCT116 cells is evaluated by mesuring the incorporation of [^14C]-thymidine in the following way. The HCT166 cells (from the ATCC) are cultured in a DMEM medium (Gibco) which contains 10% of fetal calf serum and antibiotics (1% penicillin, 1% streptomycin). To perform the proliferation test, the cells are seeded into 96-well cytostar microplates (Amersham) at the rate of 5000 cells per well. The [^14C]-thymidine (0.1 μCi/well) and the products to be evaluated are subsequently added. Variable concentrations of products up to 10 μM are used; the DMSO (solvent used to dissolve the products) should not exceed 0.5% in the medium. 48 hours after incubation at 37° C., the radioactivity incorporated into the cells is measured by counting the plate in a Tri-Lux counter (Wallac). The IC50 is defined as the concentration of product which reduces the radioactivity by 50% compared with an untreated control. A product with an IC50 of less than 10 μm is regarded as cytotoxic.
In general terms: Uptake of a labelled nucleoside into DNA is a usual measure of proliferation.

T1 sequence (P02550 whole entry): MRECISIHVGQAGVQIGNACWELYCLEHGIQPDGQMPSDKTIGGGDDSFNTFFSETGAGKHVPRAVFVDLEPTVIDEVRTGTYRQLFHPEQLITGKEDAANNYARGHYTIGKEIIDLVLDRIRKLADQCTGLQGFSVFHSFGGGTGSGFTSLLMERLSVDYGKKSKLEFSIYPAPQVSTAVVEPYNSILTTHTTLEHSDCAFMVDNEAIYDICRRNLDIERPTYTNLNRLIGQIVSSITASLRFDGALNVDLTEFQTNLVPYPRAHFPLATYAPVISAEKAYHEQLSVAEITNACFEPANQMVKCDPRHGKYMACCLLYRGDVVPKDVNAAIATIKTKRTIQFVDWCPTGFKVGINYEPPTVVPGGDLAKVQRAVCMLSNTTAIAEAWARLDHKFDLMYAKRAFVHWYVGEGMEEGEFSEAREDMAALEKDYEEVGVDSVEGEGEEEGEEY
T1 sequence (P02554 whole entry): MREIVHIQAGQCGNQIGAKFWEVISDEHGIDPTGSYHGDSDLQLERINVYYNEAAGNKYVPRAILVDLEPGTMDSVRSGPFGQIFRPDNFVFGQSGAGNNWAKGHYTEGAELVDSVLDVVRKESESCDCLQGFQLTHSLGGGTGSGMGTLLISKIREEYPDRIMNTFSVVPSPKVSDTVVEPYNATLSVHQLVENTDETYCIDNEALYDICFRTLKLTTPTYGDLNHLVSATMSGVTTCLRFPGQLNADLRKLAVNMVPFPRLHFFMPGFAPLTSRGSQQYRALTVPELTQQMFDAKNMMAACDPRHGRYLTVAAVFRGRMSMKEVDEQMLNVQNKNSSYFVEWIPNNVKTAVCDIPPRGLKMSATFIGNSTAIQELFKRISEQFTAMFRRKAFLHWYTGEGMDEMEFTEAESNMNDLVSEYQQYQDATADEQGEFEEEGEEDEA

Turning to `N#Cc1cccc(N2CCN(C(=O)c3cncn3-c3ccccc3)CC2)c1` [Example 13, [4-(3-Cyanophenyl)piperazin-1-yl](1-phenyl-1H-imidazol-5-yl)methanone], the IC50 in assay [1] is 2900 nM; with HCT116 cells, 90.9 nM.
On to `N#Cc1cccc(N2CCN(C(=O)c3[nH]cnc3-c3ccccc3)CC2)c1` [Example 14, [4-(3-Cyanophenyl)piperazin-1-yl](4-phenyl-1H-imidazol-5-yl)methanone], for which the figures for the IC50 (in assay [1]; in the assay on HCT116 cells) were 1200 nM and 7.4 nM, respectively.
The corresponding values for `O=C(c1c[nH]cc1-c1ccccc1)N1CCN(c2cccc(Cl)c2)CC1` [Example 15, [4-(3-Chlorophenyl)piperazin-1-yl](4-phenyl-1H-pyrrol-3-yl)methanone] are 2900 nM and 731 nM.
Turning to `COc1cc(OC)cc(N2CCN(C(=O)c3c[nH]cc3-c3ccccc3)CC2)c1` [Example 16, [4-(3,5-Dimethoxyphenyl)piperazin-1-yl](4-phenyl-1H-pyrrol-3-yl)methanone], the IC50 stood at 2400 nM in assay [1] and 8.5 nM in the assay with HCT116 cells.
Taken in the same sequence, the figures for `NC(=O)c1cccc(N2CCN(C(=O)c3cncn3-c3ccccc3)CC2)c1` [Example 17, [4-(3-Carboxamidophenyl)piperazin-1-yl](1-phenyl-1H-imidazol-5-yl)methanone] were 5500 nM and 536 nM.
Taken in the same sequence, the figures for `COc1cc(OC)cc(N2CCN(C(=O)c3cn(C)cc3-c3ccccc3)CC2)c1` [Example 18, [4-(3,5-Dimethoxyphenyl)piperazin-1-yl](1-methyl-4-phenyl-1H-pyrrol-3-yl)methanone hydrochloride] were 970 nM and 3.8 nM.
`COc1cc(OC)cc(N2CCN(C(=O)c3nc(S)[nH]c3-c3ccccc3)CC2)c1` [Example 20, [4-(3,5-Dimethoxyphenyl)piperazin-1-yl](2-mercapto-5-phenyl-1H-imidazol-4-yl)methanone]: the IC50 turned out to be 700 nM in assay [1] and 11.7 nM in the assay with HCT116 cells.
As to `NC(=O)c1cccc(N2CCN(C(=O)c3[nH]cnc3-c3ccccc3)CC2)c1` [Example 22, [4-(3-Carboxamidophenyl)piperazin-1-yl](4-phenyl-1H-imidazol-5-yl)-methanone], the IC50 was found to be 1100 nM in assay [1] and 193 nM with HCT116 cells.
Take `COc1cc(OC)cc(N2CCN(C(=O)c3nc(SC)[nH]c3-c3ccccc3)CC2)c1` [Example 23, [4-(3,5-Dimethoxyphenyl)piperazin-1-yl](2-methylsulfanyl-5-phenyl-1H-imidazol-4-yl)methanone]: the IC50 was 600 nM in assay [1] and 1.7 nM in the assay with HCT116 cells.
As to `COc1cc(OC)cc(N2CCN(C(=O)c3nc(SC)n(C)c3-c3ccccc3)CC2)c1` [Example 24, [4-(3,5-Dimethoxyphenyl)piperazin-1-yl](N-methyl-2-methylsulfanyl-5-phenyl-1H-imidazol-4-yl)methanone], the IC50 was determined as 9500 nM in assay [1] and 114 nM in the assay on HCT116 cells.
Consider `NC(=O)c1cccc(N2CCN(C(=O)c3cc[nH]c3-c3ccccc3)CC2)c1` [Example 25, [4-(3-Carboxamidophenyl)piperazin-1-yl](2-phenyl-1-H-pyrrol-3-yl)methanone], for which the IC50 in assay [1] was found to be 9600 nM; with HCT116 cells, 297 nM.
Taken in the same sequence, the figures for `O=C(c1cc[nH]c1-c1ccccc1)N1CCN(c2cccc(Cl)c2)CC1` [Example 26, [4-(3-Chlorophenyl)piperazin-1-yl](2-phenyl-1H-pyrrol-3-yl)methanone] were 3200 nM and 75.2 nM.
The corresponding values for `COc1cccc(N2CCN(C(=O)c3[nH]cnc3-c3ccccc3)CC2)c1` [Example 29, [4-(3-Methoxyphenyl)piperazin-1-yl](4-phenyl-1H-imidazol-5-yl)methanone] are 400 nM and 3 nM.
The corresponding values for `O=C(c1[nH]cnc1-c1ccccc1)N1CCN(c2cccc(OC(F)F)c2)CC1` [Example 30, [4-(3-Difluoromethoxyphenyl)piperazin-1-yl](5-phenyl-1H-imidazol-4-yl)methanone] are 800 nM and 6.4 nM.

The values above are taken from US20050014765A1, “Aryl-heteroaromatic products, compositions comprising them and use” (Aventis Pharma S.A., priority 2003, published 2005).
